Results from patent US20030108619A1, “Bone-strengthening agents, food compositions for strengthening bone and feed compositions for strengthening bone” (priority 2000, published 2003).

How the values were obtained:
femora [1] = assay: Dry weight of femora, Example 2; assay type: in vivo, rat
Experimental: (§1) 2. CPP-administered group: Basic feed+CPP (40 mg/100 g body weight)
(§2) 3. Genistein-administered group: Basic feed+genistein (50 μg/100 g body weight)
(§3) 4. CPP+genistein-administered group: Basic feed+CPP (40 mg/100 g body weight)+genistein (50 μg/100 g body weight)
(§4) As the CPP, a solution of CPP-III (casein phosphopeptide content 85%) manufactured by Meiji Seika Kaisha, Ltd., dissolved in distilled water was used. As the genistein, a reagent (manufactured by Sigma Chemical Company in U.S. A.) extracted from soybean and highly purified, dissolved in a 10% ethanol solution was used.
Animal groups each consisting of five animals were fed with the basic feed under constant temperature and constant humidity conditions of room temperature 25° C., and 55% humidity. […]
(§5) After washing the extracted femora in a cold 0.25 M sucrose solution to remove a soft tissue and drying it in a drier at 100° C. for about 16 hours, the dry weight of the femora was measured. After the measurement, the extracted femora were divided into diaphysis (cortical bone) and metaphysis (trabecular bone) and the amount of calcium in each of them was measured. […] The solutions were used as sample solutions and the amount of calcium therein was determined by using an atomic absorption spectrophotometer. […]
(§6) Significant tests of respective measured values were performed by using Student's t-test. […]

femora [2] = assay: Amount of calcium in femora, Example 2; assay type: in vivo, rat; conditions: 50-weeks old rats
Experimental: as §1, §2, §3, §4
(§7) Animal groups each consisting of five animals were fed with the basic feed under constant temperature and constant humidity conditions of room temperature 25° C., and 55% humidity. In addition, the control group was administered with 1 ml/100 g body weight of purified distilled water and the other groups were each orally administered with CPP and/or genistein in the above-mentioned amounts once a day for 14 days by using a stomach tube. After 24 hours from the last administration, the rats were sacrificed and the femora were extracted. The extracted femora were used for the measurement of bone components as shown below.
(§8) After washing the extracted femora in a cold 0.25 M sucrose solution to remove a soft tissue and drying it in a drier at 100° C. for about 16 hours, the dry weight of the femora was measured. After the measurement, the extracted femora were divided into diaphysis (cortical bone) and metaphysis (trabecular bone) and the amount of calcium in each of them was measured. That is, the obtained diaphysial tissue and metaphysial tissue of the femora were each charged in a test tube, to which was added 3 ml of concentrated nitric acid to decompose them at 120° C. for 24 hours. The solutions were used as sample solutions and the amount of calcium therein was determined by using an atomic absorption spectrophotometer. The amounts of calcium were expressed in terms of mg per 1 g of the dry weight of the bone tissue.
(§9) Significant tests of respective measured values were performed by using Student's t-test. Values with a risk factor of 5% or less were taken as significant.
1) The materials and methods in Example 2 were the same as in Example 1 except that 50-weeks old normal female Wistar rats obtained from Japan SLC, Inc. (Hamamatsu, Japan) were used as test animals.

femora [3] = assay: Amount of DNA in femora, Example 2; assay type: in vivo, rat; conditions: 50-weeks old rats
Experimental: (§10) 2. CPP-administered group: Basic feed+CPP (40 mg/100 g body weight) 3. Genistein-administered group: Basic feed+genistein (50 μg/100 g body weight) 4. CPP+genistein-administered group: Basic feed+CPP (40 mg/100 g body weight)+genistein (50 μg/100 g body weight) As the CPP, a solution of CPP-III (casein phosphopeptide content 85%) manufactured by Meiji Seika Kaisha, Ltd., dissolved in distilled water was used. As the genistein, a reagent (manufactured by Sigma Chemical Company in U.S. A.) extracted from soybean and highly purified, dissolved in a 10% ethanol solution was used. Animal groups each consisting of five animals were fed with the basic feed under constant temperature and constant humidity conditions of room temperature 25° C., and 55% humidity. In addition, the control group was administered with 1 ml/100 g body weight of purified distilled water and the other groups were each orally administered with CPP and/or genistein in the above-mentioned amounts once a day for 14 days by using a stomach tube. After 24 hours from the last administration, the rats were sacrificed and the femora were extracted. The extracted femora were used for the measurement of bone components as shown below. The diaphysial tissue and metaphysial tissue of the femora thus obtained were each crushed in 4.0 ml of a cold 0.1 N NaOH solution after homogenization of the bone tissue, shaken at 4° C. for 24 hours and extracted. After the alkali extraction, centrifugation treatment was performed at 1,000×g for 5 minutes and the supernatant fraction was used as a sample for the measurement of DNA. The measurement of the amount of DNA was performed in accordance with the method of Ceriotti (J. Biol. Chem., 214: 39-77, 1955). To a test tube containing 2.0 ml of a sample were added 1.0 ml of concentrated hydrochloric acid and 1.0 ml of a 0.04% indole solution and the test tube was shut with an aluminum cap, followed by heating on a boiling water bath for 10 minutes and then quenched on ice to terminate the reaction. Extraction with 4.0 ml of chloroform for 3 to 4 minutes was repeated several times and the amount of DNA was measured on a spectrophotometer (490 nm). The amount of DNA was calculated per wet weight (g) of bone tissue. Significant tests of respective measured values were performed by using Student's t-test. Values with a risk factor of 5% or less were taken as significant. 1) The materials and methods in Example 2 were the same as in Example 1 except that 50-weeks old normal female Wistar rats obtained from Japan SLC, Inc. (Hamamatsu, Japan) were used as test animals.

femora [4] = assay: Dry weight of femora, Example 1; assay type: in vivo, rat
Experimental: (§11) 5-weeks old female Wistar rats (Convention) obtained from Japan SLC, Inc. (Hamamatsu, Japan) were used.
as §1, §2, §3
As the CPP, a solution of CPP-III (casein phosphopeptide content 85%) manufactured by Meiji Seika Kaisha, Ltd., dissolved in distilled water was used. As the genistein, a reagent (manufactured by Sigma Chemical Company in U.S. A.) extracted from soybean and highly purified, dissolved in a 10% ethanol solution was used. […]
as §5, §6

osteoblasts = conditions: Res. Exp. Med. 197: 101-107, 1997; cited from earlier work
[5] = tested on: bone alkaline phosphatase; assay: Activity of femoral alkaline phosphatase, Example 1; assay type: in vivo, rat; conditions: 5-weeks old rats
Experimental: as §11, §1, §2, §3, §4, §7
(§12) The diaphysial tissue and metaphysial tissue of the femora obtained as described above were each dipped in 3 ml of a cold 6.5 mM barbital buffer (pH 7.4) and cut into small pieces and homogenized by using a Potter-Elvehjem homogenizer followed by ultrasonic treatment for 60 seconds for crushing. Further, the homogenate was centrifuged for 5 minutes at 600×g and the supernatant fraction was used as a crude enzyme solution.
(§13) The activity of bone alkaline phosphatase was measured in accordance with the method of Walter and Schutt (Bergmeyer H. U. (ed.). Methods of Enzymatic Analysis, Vol. 1-2, Academic Press, New York, pp. 856-860, 1974). The enzymatic reaction was initiated by adding 0.05 ml of the above-mentioned crude enzyme solution to 2 ml of 0.1M diethanolamine hydrochloride buffer (pH 9.8) containing disodium p-nitrophenyiphosphate as a substrate. The reaction was performed by incubation at 37° C. for 30 minutes. The reaction was terminated by adding 10 ml of 0.05N NaOH and the activity was expressed in terms of the amount (μmol) of free p-nitrophenol per 1 minute per the mass (mg) of the enzyme protein used. The concentration of the protein was measured in accordance with the method of Lowry et al. (J. Biol. Chem., 193: 265-273, 1951).
as §9

[6] = tested on: bone alkaline phosphatase; assay: Activity of femoral alkaline phosphatase, Example 2; assay type: in vivo, rat; conditions: 50-weeks old rats
Experimental: as §1, §2, §3, §4, §7, §12, §13
Significant tests of respective measured values were performed by using Student's t-test. Values with a risk factor of 5% or less were taken as significant. […]

femora [7] = assay: Amount of calcium in femora, Example 1; assay type: in vivo, rat; conditions: 5-weeks old rats
Experimental: as §11, §1, §2, §3, §4, §7, §8, §9

osteoclasts [8] = conditions: culture system using metaphysial tissue in the femora of old rats; Biochem. Pharmacol., 55: 71-76, 1998; cited from earlier work
femora [9] = assay: Amount of DNA in femora, Example 1; assay type: in vivo, rat; conditions: 5-weeks old rats
Experimental: as §10, with “5-weeks old female Wistar rats (Convention) obtained from Japan SLC, Inc. (Hamamatsu, Japan) were used. 2. CPP-administered” for “2. CPP-administered”, “as significant.” for “as significant. 1) The materials and methods in Example 2 were the same as in Example 1 except that 50-weeks old normal female Wistar rats obtained from Japan SLC, Inc. (Hamamatsu, Japan) were used as test animals.”

osteoclasts [10] = conditions: Biol. Pharm. Bull., 22, 805-809, 1999; cited from earlier work

## O=c1c(-c2ccc(O)cc2)coc2cc(O)cc(O)c12 [Genistein, genistein]
Femora [1]; 50-weeks old female Wistar rats, oral once a day for 14 days, CPP 40 mg/100 g, genistein 50 μg/100 g body weight
  Dry weight of femora: 475.3 ± 8.35 mg
Femora [1]; 50-weeks old rats, oral 14 days
  Dry weight of femora as compared with that of the control group: 1.08 times
Femora [2]; diaphysis
  Amount of calcium in the diaphysis as compared with that of the control group: 1.07 times
Femora [2]; metaphysis
  Amount of calcium in femora in the metaphysis as compared with that of the control group: 1.08 times
Femora [2]; oral 14 days, diaphysis
  Amount of bone calcium, Diaphysis: 229.2 ± 3.4 mg/g dry weight
Femora [2]; oral 14 days, metaphysis
  Amount of bone calcium, Metaphysis: 202.1 ± 3.8 mg/g dry weight
Femora [3]; diaphysis
  Amount of DNA in the diaphysis as compared with that of the control group: 1.14 times
Femora [3]; metaphysis, printed under [Amount of DNA in Femora]
  Amount of DNA in the metaphysis as compared with that of the control group: 1.05 times
Femora [3]; oral 14 days, diaphysis
  Amount of DNA, Diaphysis: 1.391 ± 0.043 mg/g wet weight of bone
Femora [3]; oral 14 days, metaphysis
  Amount of DNA, Metaphysis: 2.836 ± 0.041 mg/g wet weight of bone
Femora [4]; 5-weeks old female Wistar rats, oral once a day for 14 days, CPP 40 mg/100 g, genistein 50 μg/100 g body weight
  Dry weight of femora: 230.4 ± 1.20 mg
Femora [4]; 5-weeks old rats, oral 14 days
  Dry weight of femora as compared with that of the control group: 1.12 times
osteoblasts
  Amount of DNA (index of increase in bone mineral content and cell growth by osteoblasts): causes an increase in the amount of DNA
[5]; diaphysis
  Activity of femoral alkaline phosphatase in the diaphysis as compared with that of the control group: 1.04 times
[5]; metaphysis
  Activity of femoral alkaline phosphatase in the metaphysis as compared with that of the control group: 1.04 times
[5]; oral 14 days, diaphysis
  The activity of alkaline phosphatase, Diaphysis: 1.809 ± 0.014 μmol/min/mg protein
[5]; oral 14 days, metaphysis
  The activity of alkaline phosphatase, Metaphysis: 1.853 ± 0.017 μmol/min/mg protein
[6]; diaphysis
  Activity of femoral alkaline phosphatase in the diaphysis as compared with that of the control group: 1.12 times
[6]; metaphysis
  Activity of femoral alkaline phosphatase in the metaphysis as compared with that of the control group: 1.12 times
[6]; oral 14 days, diaphysis
  The activity of alkaline phosphatase, Diaphysis: 0.653 ± 0.019 μmol/min/mg protein
[6]; oral 14 days, metaphysis
  The activity of alkaline phosphatase, Metaphysis: 0.744 ± 0.020 μmol/min/mg protein
Femora [7]; diaphysis
  Amount of calcium in the diaphysis as compared with that of the control group: 1.12 times
Femora [7]; metaphysis
  Amount of calcium in the metaphysis as compared with that of the control group: 1.07 times
Femora [7]; oral 14 days, diaphysis
  Bone calcium, Diaphysis: 225.1 ± 3.23 mg/g dry weight
Femora [7]; oral 14 days, metaphysis
  Bone calcium, Metaphysis: 204.1 ± 3.56 mg/g dry weight
Osteoclasts [8]
  Bone resorption by osteoclasts: directly inhibits the bone resorption by osteoclasts
Femora [9]; diaphysis
  Amount of DNA in the diaphysis as compared with that of the control group: 1.06 times
Femora [9]; metaphysis
  Amount of DNA in the metaphysis as compared with that of the control group: 1.09 times
Femora [9]; oral 14 days, diaphysis
  Amount of DNA, Diaphysis: 1.895 ± 0.013 mg/g wet weight of bone
Femora [9]; oral 14 days, metaphysis
  Amount of DNA, Metaphysis: 2.894 ± 0.034 mg/g wet weight of bone
Osteoclasts [10]
  Effect of inhibiting the function of osteoclasts, potency relative to daidzein: 10 times
